Source: ChEMBL document CHEMBL1159248, “Tyrosinase inhibitors from Bolivian medicinal plants” (J Nat Prod, 1995)
Activity calls are given as the source filed them. The rule behind the calls is not given here.

Key:
[1] = molecular target: T1, Tyrosinase (Agaricus bisporus) (UniProt O42713); assay: Competitive inhibition of mushroom tyrosinase assessed as L-3,4-dihydroxyphenylalanine oxidation
T1 sequence (whole entry): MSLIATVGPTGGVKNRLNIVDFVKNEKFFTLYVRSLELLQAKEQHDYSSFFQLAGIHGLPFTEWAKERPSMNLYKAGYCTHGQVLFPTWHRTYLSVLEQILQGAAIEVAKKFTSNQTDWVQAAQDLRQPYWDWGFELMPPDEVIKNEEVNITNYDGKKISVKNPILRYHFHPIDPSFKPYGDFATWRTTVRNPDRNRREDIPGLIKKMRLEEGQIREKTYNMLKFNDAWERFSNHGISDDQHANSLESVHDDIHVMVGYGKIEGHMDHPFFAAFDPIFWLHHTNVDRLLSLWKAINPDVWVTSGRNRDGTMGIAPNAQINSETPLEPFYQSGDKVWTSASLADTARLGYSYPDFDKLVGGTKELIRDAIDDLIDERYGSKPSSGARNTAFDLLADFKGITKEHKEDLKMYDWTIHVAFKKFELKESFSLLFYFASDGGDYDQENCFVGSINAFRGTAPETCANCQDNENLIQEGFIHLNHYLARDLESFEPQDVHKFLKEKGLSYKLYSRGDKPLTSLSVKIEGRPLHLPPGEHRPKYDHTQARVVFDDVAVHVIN

[2] = molecular target: T1, Tyrosinase (Agaricus bisporus); assay: Inhibition of mushroom tyrosinase assessed as L-3,4-dihydroxyphenylalanine oxidation
[3] = molecular target: T1, Tyrosinase (Agaricus bisporus); assay: Inhibition of mushroom tyrosinase assessed as L-3,4-dihydroxyphenylalanine at 100 ug/ml

**Q.** Which Activity [1] does the source give for `O=c1c(O)c(-c2ccc(O)c(O)c2)oc2cc(O)cc(O)c12` here?
**A.** Its Activity is “Active”.

**Q.** And the ID50 [2]?
**A.** The ID50 was 70 µM.

**Q.** Which ID50 [2] does the source give for `COc1cc(/C=C/C(=O)OC[C@H]2O[C@@H](Oc3cc(O)c4c(=O)c(O)c(-c5ccc(O)cc5)oc4c3)[C@H](O)[C@@H](O)[C@@H]2O)ccc1O` here?
**A.** The ID50 was 440 µM.

**Q.** For `O=C(O[C@H]1O[C@@H]2COC(=O)c3cc(O)c(O)c(O)c3-c3c(cc(O)c(O)c3O)C(=O)O[C@H]2[C@@H]2OC(=O)c3cc(O)c(O)c(O)c3-c3c(cc(O)c(O)c3O)C(=O)O[C@@H]12)c1cc(O)c(O)c(Oc2c(C(=O)O[C@H]3O[C@@H]4COC(=O)c5cc(O)c(O)c(O)c5-c5c(cc(O)c(O)c5O)C(=O)O[C@H]4[C@@H]4OC(=O)c5cc(O)c(O)c(O)c5-c5c(cc(O)c(O)c5O)C(=O)O[C@@H]34)cc(O)c(O)c2O)c1`, which ID50 [2] is on record?
**A.** Its ID50 is 61 µM.

**Q.** With `O=C(O)c1ccc(O)cc1` as the compound, how does the Activity [1] read?
**A.** Its Activity is “Active”.

**Q.** What about the ID50 [2] of the same compound?
**A.** Its ID50 is 1900 µM.

**Q.** With `O=c1cc(-c2ccc(O[C@@H]3O[C@H](CO)[C@@H](O)[C@H](O)[C@H]3O)c(O)c2)oc2cc(O)cc(O)c12` as the compound, how does the inhibition [3] read?
**A.** The inhibition was 100%.

**Q.** Which ID50 [2] does the source give for `O=C(/C=C/c1ccc(O)cc1)OC[C@H]1O[C@@H](Oc2cc(O)c3c(=O)c(O)c(-c4ccc(O)cc4)oc3c2)[C@H](O)[C@@H](O)[C@@H]1O` here?
**A.** Its ID50 is 390 µM.
